Data: article PMC5931191, “Reversible stapling of unprotected peptides via chemoselective methionine bis-alkylation/dealkylation” (Chemical Science, 2018)

Assays:
[1] = Met bis-alkylation (bis-sulfonium staple) of one unprotected peptide with different dihalide linkers (1.2 equiv), 1% HCOOH (pH ~3), 24 h; settings: the molecule shown is the open-chain precursor, MeCN/H2O 30:70 (SI: 1:3) + 1% HCOOH, small amount of DMF, 10.0 mM, 25.0 °C
[2] = Met bis-alkylation (bis-sulfonium staple) with linker c, 1,4-bis(bromomethyl)benzene (1.2 equiv), 1% HCOOH (pH ~3), 24 h; settings: the molecule shown is the open-chain precursor, MeCN/H2O 30:70 (SI: 1:3) + 1% HCOOH, small amount of DMF, 10.0 mM, 25.0 °C
[3] = Met bis-alkylation (bis-sulfonium staple) with linker a, 1,3-bis(bromomethyl)benzene (1.2 equiv), 1% HCOOH (pH ~3), 24 h; settings: the molecule shown is the open-chain precursor, MeCN/H2O 30:70 (SI: 1:3) + 1% HCOOH, small amount of DMF, 10.0 mM, 25.0 °C
[4] = Dealkylation of cyclic peptides with 2-mercaptopyridine (regeneration of linear peptide); type: physicochemical; settings: chemical stability under reductive conditions; 2-mercaptopyridine (10 equiv., 10 mM) in PBS pH 7.4, 37 °C, different time points, HPLC / LC-MS; Fig. 3A, B
Protocol: in linear gradient mixtures.
1. Preparation of alkylated sulfonium peptides[1]
The alkylated reagent (1.2 equiv)
Then the solution was purified by reversed […]
peptide can be gradually regenerated to the linear peptide.
To 100 µL of each solution 1 µL […]
linear gradient from 10% to 70% acetonitrile over 15min. […]
quantified by LC/MS-based peak detection at 254nm.
4. Flow Cytometry Analysis
T47D cells were seeded in
37°C), washed with PBS, and resuspended in PBS. […]
cytometer (Becton Dickinson) and CellQuest Pro (or CFlow plus).

HeLa cells = experiment: Flow cytometry cellular uptake in HeLa cells; type: cell-based; settings: 10% fetal bovine serum, 5, 10, 20 µM, Fig. S5

## CSCC[C@H](NC(=O)[C@H](CC(=O)O)NC(=O)CNC(=O)[C@H](CCCNC(=N)N)NC(=O)[C@H](CC[S+](C)Cc1ccc(-c2ccc(CBr)cc2)cc1)NC(=O)[C@H](Cc1c[nH]c2ccccc12)NC(C)=O)C(N)=O (some centres unmarked)
[1]; 29-membered ring
  ring closure, conversion by HPLC: 60%

## CSCC[C@H](NC(=O)[C@H](CC(=O)O)NC(=O)CNC(=O)[C@H](CCCNC(=N)N)NC(=O)[C@H](CC[S+](C)Cc1nc2ccccc2nc1CBr)NC(=O)[C@H](Cc1c[nH]c2ccccc12)NC(C)=O)C(N)=O (some centres unmarked)
[1]; 23-membered ring
  ring closure, conversion by HPLC: 53%

## CSCC[C@H](NC(=O)[C@H](CC(=O)O)NC(=O)CNC(=O)[C@H](CCCNC(=N)N)NC(=O)[C@H](CC(=O)O)NC(=O)CNC(=O)[C@H](CCCNC(=N)N)NC(=O)[C@H](CC[S+](C)Cc1ccc(CBr)cc1)NC(=O)[C@H](Cc1c[nH]c2ccccc12)NC(C)=O)C(N)=O (stereo partly drawn) [Ac-Trp-Met-Arg-Gly-Asp-Arg-Gly-Asp-Met-NH2]
[2]; 34-membered ring
  ring closure, conversion by HPLC: 54%

## CSCC[C@H](NC(=O)[C@H](CC(=O)O)NC(=O)CNC(=O)[C@H](CCCNC(=N)N)NC(=O)[C@H](CC(=O)O)NC(=O)CNC(=O)[C@H](CCCNC(=N)N)NC(=O)[C@H](CC[S+](C)Cc1cccc(CBr)c1)NC(=O)[C@H](Cc1c[nH]c2ccccc12)NC(C)=O)C(N)=O (stereo partly drawn) [Ac-Trp-Met-Arg-Gly-Asp-Arg-Gly-Asp-Met-NH2]
[3]; 33-membered ring
  ring closure, conversion by HPLC: 85%

## CSCC[C@H](NC(=O)[C@H](CC(=O)O)NC(=O)CNC(=O)[C@H](CCCNC(=N)N)NC(=O)[C@H](CC[S+](C)Cc1ccccc1CBr)NC(=O)[C@H](Cc1c[nH]c2ccccc12)NC(C)=O)C(N)=O (stereo partly drawn) [Ac-Trp-Met-Arg-Gly-Asp-Met-NH2 + 1,2-bis(bromomethyl)benzene]
[1]; 23-membered ring
  ring closure, conversion by HPLC: 58%

## CSCC[C@H](NC(=O)[C@H](CC(=O)O)NC(=O)CNC(=O)[C@H](CCCNC(=N)N)NC(=O)[C@H](CC[S+](C)Cc1cccc(CBr)c1)NC(=O)[C@H](Cc1c[nH]c2ccccc12)NC(C)=O)C(N)=O (stereo partly drawn) [Ac-Trp-Met-Arg-Gly-Asp-Met-NH2 + 1,3-bis(bromomethyl)benzene]
[1]; 24-membered ring
  ring closure, conversion by HPLC: 88%

## CSCC[C@H](NC(=O)[C@H](CC(=O)O)NC(=O)CNC(=O)[C@H](CCCNC(=N)N)NC(=O)[C@H](CC[S+](C)Cc1ccc(CBr)cc1)NC(=O)[C@H](Cc1c[nH]c2ccccc12)NC(C)=O)C(N)=O (stereo partly drawn) [Ac-Trp-Met-Arg-Gly-Asp-Met-NH2 + 1,4-bis(bromomethyl)benzene]
[1]; 25-membered ring
  ring closure, conversion by HPLC: 49%

## CSCC[C@H](NC(=O)[C@H](CC(=O)O)NC(=O)CNC(=O)[C@H](CCCNC(=N)N)NC(=O)[C@H](CC[S+](C)CC(=O)C(=O)CBr)NC(=O)[C@H](Cc1c[nH]c2ccccc12)NC(C)=O)C(N)=O (stereo partly drawn) [Ac-Trp-Met-Arg-Gly-Asp-Met-NH2 + 1,4-dibromobutane-2,3-dione]
[1]; 23-membered ring
  ring closure, conversion by HPLC: 64%

## CSCC[C@H](NC(=O)[C@H](CC(=O)O)NC(=O)CNC(=O)[C@H](CCCNC(=N)N)NC(=O)[C@H](CC[S+](C)CCCCBr)NC(=O)[C@H](Cc1c[nH]c2ccccc12)NC(C)=O)C(N)=O (stereo partly drawn) [Ac-Trp-Met-Arg-Gly-Asp-Met-NH2 + 1,4-dibromobutane]
[1]; 23-membered ring
  ring closure, conversion by HPLC: 0%

## CSCC[C@H](NC(=O)[C@H](CC(=O)O)NC(=O)CNC(=O)[C@H](CCCNC(=N)N)NC(=O)[C@H](CC[S+](C)CCCCI)NC(=O)[C@H](Cc1c[nH]c2ccccc12)NC(C)=O)C(N)=O (stereo partly drawn) [Ac-Trp-Met-Arg-Gly-Asp-Met-NH2 + 1,4-diiodobutane]
[1]; 23-membered ring
  ring closure, conversion by HPLC: 0%

## CSCC[C@H](NC(=O)[C@H](CC(=O)O)NC(=O)CNC(=O)[C@H](CCCNC(=N)N)NC(=O)[C@H](CC[S+](C)C/C=C/CBr)NC(=O)[C@H](Cc1c[nH]c2ccccc12)NC(C)=O)C(N)=O (stereo partly drawn) [Ac-Trp-Met-Arg-Gly-Asp-Met-NH2 + (E)-1,4-dibromobut-2-ene]
[1]; 23-membered ring
  ring closure, conversion by HPLC: 93%

## CSCC[C@H](NC(=O)[C@H](CC(C)C)NC(=O)[C@H](CS)NC(=O)[C@H](CC[S+](C)Cc1ccc(CBr)cc1)NC(=O)[C@H](Cc1c[nH]c2ccccc12)NC(C)=O)C(=O)N[C@@H](C)C(N)=O (stereo partly drawn) [Ac-Trp-Met-Cys-Leu-Met-Ala-NH2]
[2]; 22-membered ring
  ring closure, conversion by HPLC: > 95%

## CSCC[C@H](NC(=O)[C@H](CC(C)C)NC(=O)[C@H](CS)NC(=O)[C@H](CC[S+](C)Cc1cccc(CBr)c1)NC(=O)[C@H](Cc1c[nH]c2ccccc12)NC(C)=O)C(=O)N[C@@H](C)C(N)=O (stereo partly drawn) [Ac-Trp-Met-Cys-Leu-Met-Ala-NH2]
[3]; 21-membered ring
  ring closure, conversion by HPLC: > 95%

## CSCC[C@H](NC(=O)[C@H](CC(=O)O)NC(=O)[C@@H](NC(=O)[C@H](Cc1c[nH]cn1)NC(=O)[C@H](CC[S+](C)Cc1ccc(CBr)cc1)NC(=O)[C@H](Cc1c[nH]c2ccccc12)NC(C)=O)C(C)C)C(=O)N[C@@H](C)C(N)=O (stereo partly drawn) [Ac-Trp-Met-His-Val-Asp-Met-Ala-NH2]
[2]; 25-membered ring
  ring closure, conversion by HPLC: 85%

## CSCC[C@H](NC(=O)[C@H](CC(=O)O)NC(=O)[C@@H](NC(=O)[C@H](Cc1c[nH]cn1)NC(=O)[C@H](CC[S+](C)Cc1cccc(CBr)c1)NC(=O)[C@H](Cc1c[nH]c2ccccc12)NC(C)=O)C(C)C)C(=O)N[C@@H](C)C(N)=O (stereo partly drawn) [Ac-Trp-Met-His-Val-Asp-Met-Ala-NH2]
[3]; 24-membered ring
  ring closure, conversion by HPLC: 73%

## CSCC[C@H](NC(=O)[C@H](CCC(=O)O)NC(=O)[C@H](CCCCN)NC(=O)[C@H](CC[S+](C)Cc1ccc(CBr)cc1)NC(=O)[C@H](Cc1c[nH]c2ccccc12)NC(C)=O)C(=O)N[C@@H](C)C(N)=O (stereo partly drawn) [Ac-Trp-Met-Lys-Glu-Met-Ala-NH2]
[2]; 22-membered ring
  ring closure, conversion by HPLC: 73%

## CSCC[C@H](NC(=O)[C@H](CCC(=O)O)NC(=O)[C@H](CCCCN)NC(=O)[C@H](CC[S+](C)Cc1cccc(CBr)c1)NC(=O)[C@H](Cc1c[nH]c2ccccc12)NC(C)=O)C(=O)N[C@@H](C)C(N)=O (stereo partly drawn) [Ac-Trp-Met-Lys-Glu-Met-Ala-NH2]
[3]; 21-membered ring
  ring closure, conversion by HPLC: 85%

## CC[C@H](C)[C@H](NC(=O)[C@H](CCCCN)NC(=O)[C@H](CC[S+](C)Cc1ccc(CBr)cc1)NC(=O)[C@H](Cc1c[nH]c2ccccc12)NC(C)=O)C(=O)N[C@@H](CCC(=O)O)C(=O)N[C@@H](CCSC)C(=O)N[C@@H](C)C(N)=O (stereo partly drawn) [Ac-Trp-Met-Lys-Ile-Glu-Met-Ala-NH2]
[2]; 25-membered ring
  ring closure, conversion by HPLC: 83%

## CC[C@H](C)[C@H](NC(=O)[C@H](CCCCN)NC(=O)[C@H](CC[S+](C)Cc1cccc(CBr)c1)NC(=O)[C@H](Cc1c[nH]c2ccccc12)NC(C)=O)C(=O)N[C@@H](CCC(=O)O)C(=O)N[C@@H](CCSC)C(=O)N[C@@H](C)C(N)=O (stereo partly drawn) [Ac-Trp-Met-Lys-Ile-Glu-Met-Ala-NH2]
[3]; 24-membered ring
  ring closure, conversion by HPLC: 77%

## CSCC[C@H](NC(=O)[C@H](Cc1c[nH]cn1)NC(=O)[C@@H]1CCCN1C(=O)[C@H](CC[S+](C)Cc1ccc(CBr)cc1)NC(=O)[C@H](Cc1c[nH]c2ccccc12)NC(C)=O)C(=O)N[C@@H](C)C(N)=O (stereo partly drawn) [Ac-Trp-Met-Pro-His-Met-Ala-NH2]
[2]; 22-membered ring
  ring closure, conversion by HPLC: 74%

## CSCC[C@H](NC(=O)[C@H](Cc1c[nH]cn1)NC(=O)[C@@H]1CCCN1C(=O)[C@H](CC[S+](C)Cc1cccc(CBr)c1)NC(=O)[C@H](Cc1c[nH]c2ccccc12)NC(C)=O)C(=O)N[C@@H](C)C(N)=O (stereo partly drawn) [Ac-Trp-Met-Pro-His-Met-Ala-NH2]
[3]; 21-membered ring
  ring closure, conversion by HPLC: 84%

## CSCC[C@H](NC(=O)CNC(=O)[C@H](Cc1ccc(O)cc1)NC(=O)[C@@H]1CCCN1C(=O)[C@H](CC[S+](C)Cc1ccc(CBr)cc1)NC(=O)[C@H](Cc1c[nH]c2ccccc12)NC(C)=O)C(=O)N[C@@H](C)C(N)=O (stereo partly drawn) [Ac-Trp-Met-Pro-Tyr-Gly-Met-Ala-NH2]
[2]; 25-membered ring
  ring closure, conversion by HPLC: 81%

## CSCC[C@H](NC(=O)CNC(=O)[C@H](Cc1ccc(O)cc1)NC(=O)[C@@H]1CCCN1C(=O)[C@H](CC[S+](C)Cc1cccc(CBr)c1)NC(=O)[C@H](Cc1c[nH]c2ccccc12)NC(C)=O)C(=O)N[C@@H](C)C(N)=O (stereo partly drawn) [Ac-Trp-Met-Pro-Tyr-Gly-Met-Ala-NH2]
[3]; 24-membered ring
  ring closure, conversion by HPLC: 70%

## Ac-W-(cyclo-c)-MRGDM-NH2 (sidechain bridge or staple) [1c, peptide 1 Met bis-alkylated with linker c]
[4]
  regeneration of the parental linear peptide 1 (dealkylation): time-dependent regeneration of the parental peptide 1

## FITC-βA-(cyclo-a)-MRRRM-NH2 (sidechain bridge or staple) [11a, peptide 11 cyclized using linker a]
HeLa cells
  cellular uptake efficiency (flow cytometry) in the presence of serum: same tendency as in the absence of serum

## FITC-βA-(cyclo-i)-MRRRM-NH2 (sidechain bridge or staple) [11i, peptide 11 cyclized using linker i]
HeLa cells
  cellular uptake efficiency (flow cytometry) in the presence of serum: same tendency as in the absence of serum
